Laboratory results as given in the supplement of paper PMC10307832.

Legend:
Assay in all cases: relative viability (nuclei count vs DMSO), 5 days (fraction); higher = more cells survive
SW 900 = test system: SW 900
In short: (§1)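 Dosing by pin tool came one day after lung cancer cell lines were seeded in 1536-well plates, using either one drug or a fixed anchor-drug dose plus five library-drug doses (not always all listed) in √10 steps. After 5 days, nuclei were counted on 4× images. Relative viability is treated-well nuclei count divided by vehicle-well nuclei count, and values are medians of duplicate plates.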

NCI-H441 = test system: NCI-H441
In short: as §1

HCC-44 = test system: HCC-44
In short: as §1

NCI-H1944 = test system: NCI-H1944
In short: as §1

NCI-H2126 = test system: NCI-H2126
In short: as §1

NCI-H322M = test system: NCI-H322M
In short: as §1

NCI-H1666 = test system: NCI-H1666
In short: as §1

EPLC-272H = test system: EPLC-272H
In short: as §1

NCI-H2087 = test system: NCI-H2087
In short: as §1

PC-14 = test system: PC-14
In short: as §1

ChaGo-K-1 = test system: ChaGo-K-1
In short: as §1

NCI-H460 = test system: NCI-H460
In short: as §1

HOP-62 = test system: HOP-62
In short: as §1

NCI-H1355 = test system: NCI-H1355
In short: as §1

EMC-BAC-2 = test system: EMC-BAC-2
In short: as §1

LCLC-103H = test system: LCLC-103H
In short: as §1

NCI-H3122 = test system: NCI-H3122
In short: as §1

NCI-H596 = test system: NCI-H596
In short: as §1

NCI-H2405 = test system: NCI-H2405
In short: as §1

NCI-H1975 = test system: NCI-H1975
In short: as §1

LK-2 = test system: LK-2
In short: as §1

With `Nc1cccc2c1CN(C1CCC(=O)NC1=O)C2=O` (stereo not given) [Lenalidomide] + NC(=O)Nc1cc(-c2cccc(F)c2)sc1C(=O)N[C@H]1CCCNC1 [AZD7762] (partner 0.2 µM) the relative viability (SW 900; first compound 2.53 µM) was 0.578, the relative viability (SW 900; first compound 8 µM) was 0.456 and the relative viability (NCI-H441; first compound 0.253 µM) was 1.3. For the same compound, the relative viability (NCI-H441; first compound 0.8 µM) was 1.15, the relative viability (NCI-H441; first compound 2.53 µM) was 1.17 and the relative viability (NCI-H441; first compound 8 µM) was 1.26. For the same compound, the relative viability (HCC-44; first compound 0.253 µM) was 0.97, the relative viability (HCC-44; first compound 0.8 µM) was 0.836 and the relative viability (HCC-44; first compound 2.53 µM) was 0.999. The relative viability (HCC-44; first compound 8 µM) was 1.14, the relative viability (NCI-H1944; first compound 0.253 µM) was 0.545 and the relative viability (NCI-H1944; first compound 2.53 µM) was 0.709. For the same compound, the relative viability (NCI-H1944; first compound 8 µM) was 0.386, the relative viability (NCI-H2126; first compound 0.253 µM) was 0.973 and the relative viability (NCI-H2126; first compound 0.8 µM) was 1.03. For the same compound, the relative viability (NCI-H2126; first compound 2.53 µM) was 1.05, the relative viability (NCI-H2126; first compound 8 µM) was 0.947 and the relative viability (NCI-H322M; first compound 0.253 µM) was 0.543. For the same compound, the relative viability (NCI-H322M; first compound 0.8 µM) was 0.55, the relative viability (NCI-H322M; first compound 2.53 µM) was 0.596 and the relative viability (NCI-H322M; first compound 8 µM) was 0.442. It also gave a relative viability (NCI-H1666; first compound 0.253 µM) of 0.895, a relative viability (NCI-H1666; first compound 0.8 µM) of 0.716 and a relative viability (NCI-H1666; first compound 2.53 µM) of 0.985. For the same compound, the relative viability (NCI-H1666; first compound 8 µM) was 0.874, the relative viability (EPLC-272H; first compound 0.253 µM) was 0.23 and the relative viability (EPLC-272H; first compound 0.8 µM) was 0.202. It also gave a relative viability (EPLC-272H; first compound 2.53 µM) of 0.213, a relative viability (EPLC-272H; first compound 8 µM) of 0.201 and a relative viability (NCI-H2087; first compound 0.253 µM) of 1.29. It also gave a relative viability (NCI-H2087; first compound 2.53 µM) of 1.29, a relative viability (NCI-H2087; first compound 8 µM) of 1.23 and a relative viability (PC-14; first compound 0.253 µM) of 0.384. The relative viability (PC-14; first compound 0.8 µM) was 0.297, the relative viability (PC-14; first compound 2.53 µM) was 0.386 and the relative viability (PC-14; first compound 8 µM) was 0.427. The relative viability (ChaGo-K-1; first compound 0.253 µM) was 0.916, the relative viability (ChaGo-K-1; first compound 0.8 µM) was 0.853 and the relative viability (ChaGo-K-1; first compound 2.53 µM) was 1.02. For the same compound, the relative viability (ChaGo-K-1; first compound 8 µM) was 0.893, the relative viability (NCI-H460; first compound 0.253 µM) was 0.578 and the relative viability (NCI-H460; first compound 0.8 µM) was 0.567. The relative viability (NCI-H460; first compound 2.53 µM) was 0.596, the relative viability (NCI-H460; first compound 8 µM) was 0.754 and the relative viability (HOP-62; first compound 0.253 µM) was 0.552. It also gave a relative viability (HOP-62; first compound 0.8 µM) of 0.838, a relative viability (HOP-62; first compound 2.53 µM) of 0.711 and a relative viability (HOP-62; first compound 8 µM) of 0.533. It also gave a relative viability (NCI-H1355; first compound 0.253 µM) of 0.798, a relative viability (NCI-H1355; first compound 0.8 µM) of 0.59 and a relative viability (NCI-H1355; first compound 2.53 µM) of 0.765. For the same compound, the relative viability (NCI-H1355; first compound 8 µM) was 0.696, the relative viability (EMC-BAC-2; first compound 0.253 µM) was 1.12 and the relative viability (EMC-BAC-2; first compound 0.8 µM) was 0.64. The relative viability (EMC-BAC-2; first compound 2.53 µM) was 1.19, the relative viability (EMC-BAC-2; first compound 8 µM) was 0.931 and the relative viability (LCLC-103H; first compound 0.253 µM) was 0.755. It also gave a relative viability (LCLC-103H; first compound 0.8 µM) of 0.796, a relative viability (LCLC-103H; first compound 2.53 µM) of 0.786 and a relative viability (LCLC-103H; first compound 8 µM) of 0.589. The relative viability (NCI-H3122; first compound 0.253 µM) was 0.938, the relative viability (NCI-H3122; first compound 0.8 µM) was 1.03 and the relative viability (NCI-H3122; first compound 2.53 µM) was 1.06. It also gave a relative viability (NCI-H3122; first compound 8 µM) of 0.966, a relative viability (NCI-H596; first compound 0.253 µM) of 1.13 and a relative viability (NCI-H596; first compound 0.8 µM) of 1.09. For the same compound, the relative viability (NCI-H596; first compound 2.53 µM) was 1.1, the relative viability (NCI-H596; first compound 8 µM) was 1 and the relative viability (NCI-H2405; first compound 0.253 µM) was 0.681. For the same compound, the relative viability (NCI-H2405; first compound 0.8 µM) was 0.498, the relative viability (NCI-H2405; first compound 2.53 µM) was 0.815 and the relative viability (NCI-H2405; first compound 8 µM) was 0.821. For the same compound, the relative viability (NCI-H1975; first compound 0.253 µM) was 0.8, the relative viability (NCI-H1975; first compound 0.8 µM) was 0.642 and the relative viability (NCI-H1975; first compound 2.53 µM) was 0.776. For the same compound, the relative viability (NCI-H1975; first compound 8 µM) was 0.713, the relative viability (LK-2; first compound 0.253 µM) was 0.511 and the relative viability (LK-2; first compound 0.8 µM) was 0.366. It also gave a relative viability (LK-2; first compound 2.53 µM) of 0.33 and a relative viability (LK-2; first compound 8 µM) of 0.206.
